The values that follow come from US8778973B2, “Alkene oxindole derivatives” (Hoffmann-La Roche Inc., priority 2009, dated 2014).

The assay has as its system Recombinant human AMPK proteins (α1β1γ1, α2β1γ1, α1(1-335), α1(1-394) or α2(1-394)). The assay can be described thus: Scintillation Proximity Assay (SPA) of AMPK activation. Format: biochemical. Conditions: activator concentration for 50% of maximal enzyme activity; 50 nM recombinant AMPK, 2 μM ATP, 30° C., 2 hr. Here is the method:
Recombinant human AMPK α1β1γ1, α2β1γ1 or AMPK α subunit truncations α1(1-335), α1(1-394) and α2(1-394) were constructed, expressed and purified as described previously (Pang, T., Zhang, Z. S., Gu, M., Qiu, B. Y., Yu, L. F., Cao, P. R., Shao, W., Su, M. B., Li, J. Y., Nan, F. J., and Li, J. (2008)). Rat liver AMPK heterotrimer enzyme was obtained from Upstate (Billerica, Mass., U.S.A.).
Scintillation Proximity Assay
Before the Scintillation Proximity Assay (SPA) assay, 200 nM recombinant AMPK proteins (α1β1γ1, α2β1γ1, α1(1-335), α1(1-394) or α2(1-394)) were fully phosphorylated as described previously (Pang et al., 2008). SPA reactions were performed in 96-well plates at a final volume of 501 containing 20 mM Tris-HCl pH 7.5, 5 mM MgCl2, 1 mM DTT, 2 μM biotin-SAMS, 2 μM ATP, 0.2 μCi/well [γ-^33P]ATP, and various amount of activator. Reactions were initiated by the addition of 50 nM recombinant AMPK proteins to the reaction solutions and incubated at 30° C. for 2 hr. After that, reactions were terminated by the addition of 401 stop solution containing 80 μg streptavidin-coated SPA beads per well, 50 mM EDTA, 0.1% Triton X-100 in PBS, pH 7.5 and incubated for 1 hr. Finally, a 160 ul suspension solution containing 2.4 M CsCl, 50 mM EDTA, and 0.1% Triton X-100 in PBS (pH 7.5) was added to the reaction solution to suspend SPA beads completely. SPA signals were determined with a Wallac MicroBeta plate counter (PerkinElmer) 30 min later for calculation of the amount of product formed. The amount of products formed in 2 hr was plotted against activator concentrations to determine the effective concentration of the activator (EC50) required for 50% of maximal enzyme activity.
Compounds as described above have EC50 values between 0.5 uM and 50 uM, preferred compounds have EC50 values between 0.5 uM and 10 uM, particularly preferred compounds have EC50 values between 0.5 uM and 1 uM.

Broadly, the EC50 is the concentration needed to bring the measured effect to its halfway point. Take `COc1cc(/C(=C2/C(=O)N(Cc3cccc(C(=O)O)c3)c3ccccc32)c2ccccc2)cc(OC)c1OC` [Example 51, 3-{2-Oxo-3-[1-phenyl-1-(3,4,5-trimethoxy-phenyl)-meth-(E)-ylidene]-2,3-dihydro-indol-1-ylmethyl}-benzoic acid]: the EC50 is 1.42 µM.

For `O=C(O)c1cccc(CN2C(=O)/C(=C(\c3ccccc3)c3cccc(Cl)c3)c3ccccc32)c1` [Example 52, 3-{3-[1-(3-Chloro-phenyl)-1-phenyl-meth-(E)-ylidene]-2-oxo-2,3-dihydro-indol-1-ylmethyl}-benzoic acid], the EC50 is 6.55 µM.

For the compound `O=C(O)c1cccc(CN2C(=O)/C(=C(\c3ccccc3)c3ccc(Cl)cc3)c3cc(F)ccc32)c1` [Example 53, 3-{3-[1-(4-Chloro-phenyl)-1-phenyl-meth-(E)-ylidene]-5-fluoro-2-oxo-2,3-dihydro-indol-1-ylmethyl}-benzoic acid], the EC50 amounted to 5.89 µM.

For `O=C(O)c1cccc(CN2C(=O)/C(=C(\c3ccccc3)c3cc(Cl)cc(Cl)c3)c3ccccc32)c1` [Example 54, 3-{3-[1-(3,5-Dichloro-phenyl)-1-phenyl-meth-(E)-ylidene]-2-oxo-2,3-dihydro-indol-1-ylmethyl}-benzoic acid], the EC50 turned out to be 5.14 µM.

Turning to `O=C(O)c1cccc(CN2C(=O)/C(=C(\c3ccccc3)c3cccc(Cl)c3Cl)c3ccccc32)c1` [Example 55, 3-{3-[1-(2,3-Dichloro-phenyl)-1-phenyl-meth-(E)-ylidene]-2-oxo-2,3-dihydro-indol-1-ylmethyl}-benzoic acid], the EC50 is 2.94 µM.

In the case of `O=C(O)c1ccccc1CN1C(=O)/C(=C(\c2ccccc2)c2ccc(Cl)cc2)c2ccccc21` [Example 56, 2-{3-[1-(4-Chloro-phenyl)-1-phenyl-meth-(E)-ylidene]-2-oxo-2,3-dihydro-indol-1-ylmethyl}-benzoic acid], the EC50 was 4.24 µM.

On to `O=C(O)c1ccc(CN2C(=O)/C(=C(\c3ccccc3)c3ccc(Cl)cc3)c3ccccc32)cc1` [Example 57, 4-{3-[1-(4-Chloro-phenyl)-1-phenyl-meth-(E)-ylidene]-2-oxo-2,3-dihydro-indol-1-ylmethyl}-benzoic acid], for which the EC50 was found to be 2.17 µM.

`COc1ccc2c(c1)/C(=C(/c1ccccc1)c1ccc(Cl)cc1)C(=O)N2Cc1cccc(C(=O)O)c1` [Example 58, 3-{3-[1-(4-Chloro-phenyl)-1-phenyl-meth-(E)-ylidene]-5-methoxy-2-oxo-2,3-dihydro-indol-1-ylmethyl}-benzoic acid]: the EC50 was found to be 4.87 µM.

`O=C(O)c1ccc(CN2C(=O)/C(=C(\c3ccccc3)c3ccc(Cl)cc3)c3ccccc32)nc1` [Example 59, 6-{3-[1-(4-Chloro-phenyl)-1-phenyl-meth-(E)-ylidene]-2-oxo-2,3-dihydro-indol-1-ylmethyl}-nicotinic acid]: the EC50 was found to be 5.19 µM.

For the compound `O=C(O)c1cccc(CN2C(=O)/C(=C(\c3ccccc3)c3ccc(Cl)cc3)c3c(F)cccc32)c1` [Example 60, 3-{3-[1-(4-Chloro-phenyl)-1-phenyl-meth-(E)-ylidene]-4-fluoro-2-oxo-2,3-dihydro-indol-1-ylmethyl}-benzoic acid], the EC50 worked out at 1.24 µM.

Take `O=C(O)c1cccc(CN2C(=O)/C(=C(\c3ccccc3)c3ccc(Cl)cc3)c3ccc(F)cc32)c1` [Example 61, 3-{3-[1-(4-Chloro-phenyl)-1-phenyl-meth-(E)-ylidene]-6-fluoro-2-oxo-2,3-dihydro-indol-1-ylmethyl}-benzoic acid]: the EC50 was found to be 4.93 µM.

For the compound `CSc1ccccc1/C(=C1/C(=O)N(Cc2cccc(C(=O)O)c2)c2ccccc21)c1ccccc1` [Example 62, 3-{3-[1-(2-Methylsulfanyl-phenyl)-1-phenyl-meth-(E)-ylidene]-2-oxo-2,3-dihydro-indol-1-ylmethyl}-benzoic acid], the EC50 worked out at 2.33 µM.

Regarding `O=C(O)c1cccc(CN2C(=O)/C(=C(\c3ccccc3)c3cccnc3)c3ccccc32)c1` [Example 63, 3-{2-Oxo-3-[1-phenyl-1-pyridin-3-yl-meth-(E)-ylidene]-2,3-dihydro-indol-1-ylmethyl}-benzoic acid], the EC50 was determined as 3.24 µM.

With `O=C(O)c1cccc(CN2C(=O)/C(=C(\c3ccccc3)c3cc(C(F)(F)F)ccc3Cl)c3ccccc32)c1` [Example 64, 3-{3-[1-(2-Chloro-5-trifluoromethyl-phenyl)-1-phenyl-meth-(E)-ylidene]-2-oxo-2,3-dihydro-indol-1-ylmethyl}-benzoic acid], the EC50 came to 6.63 µM.

On to `O=C(O)c1cccc(CN2C(=O)/C(=C(\c3ccccc3)c3cc(C(F)(F)F)cc(C(F)(F)F)c3)c3ccccc32)c1` [Example 65, 3-{3-[1-(3,5-Bis-trifluoromethyl-phenyl)-1-phenyl-meth-(E)-ylidene]-2-oxo-2,3-dihydro-indol-1-ylmethyl}-benzoic acid], for which the EC50 came to 3.41 µM.

Take `O=C(O)c1cccc(CN2C(=O)/C(=C(\c3ccccc3)c3cccc(C(F)(F)F)c3)c3ccccc32)c1` [Example 66, 3-{2-Oxo-3-[1-phenyl-1-(3-trifluoromethyl-phenyl)-meth-(E)-ylidene]-2,3-dihydro-indol-1-ylmethyl}-benzoic acid]: the EC50 is 2.44 µM.

In the case of `NS(=O)(=O)c1ccc(/C(=C2/C(=O)N(Cc3cccc(C(=O)O)c3)c3ccccc32)c2ccccc2)cc1` [Example 67, 3-{2-Oxo-3-[1-phenyl-1-(4-sulfamoyl-phenyl)-meth-(E)-ylidene]-2,3-dihydro-indol-1-ylmethyl}-benzoic acid], the EC50 amounted to 1.27 µM.

Take `O=C(O)c1cccc(CN2C(=O)/C(=C(/c3ccccc3)c3ccc(Cl)cc3)c3ccccc32)c1` [Example 68, 3-{3-[1-(4-Chloro-phenyl)-1-phenyl-meth-(Z)-ylidene]-2-oxo-2,3-dihydro-indol-1-ylmethyl}-benzoic acid]: the EC50 is 2.12 µM.

Regarding `O=C(O)c1cccc(CN2C(=O)/C(=C(\c3ccc(Cl)cc3)c3ccc(C(F)(F)F)cc3)c3ccccc32)c1` [Example 69, 3-{3-[1-(4-Chloro-phenyl)-1-(4-trifluoromethyl-phenyl)-meth-(Z)-ylidene]-2-oxo-2,3-dihydro-indol-1-ylmethyl}-benzoic acid], the EC50 is 2.2 µM.

With `O=C(O)COc1ccc(CN2C(=O)/C(=C(\c3ccccc3)c3ccc(Cl)cc3)c3ccccc32)cc1` [Example 70, (4-{3-[1-(4-Chloro-phenyl)-1-phenyl-meth-(E)-ylidene]-2-oxo-2,3-dihydro-indol-1-ylmethyl}-phenoxy)-acetic acid], the EC50 came to 4.96 µM.

Take `CC(C)c1ccc(/C(=C2/C(=O)N(Cc3cccc(C(=O)O)c3)c3ccccc32)c2ccccc2)cc1` [Example 71, 3-{3-[1-(4-Isopropyl-phenyl)-1-phenyl-meth-(E)-ylidene]-2-oxo-2,3-dihydro-indol-1-ylmethyl}-benzoic acid]: the EC50 was determined as 4.02 µM.

On to `O=C(O)c1cccc(CN2C(=O)/C(=C(\c3ccccc3)c3ccc(F)c(F)c3)c3ccccc32)c1` [Example 72, 3-{3-[1-(3,4-Difluoro-phenyl)-1-phenyl-meth-(E)-ylidene]-2-oxo-2,3-dihydro-indol-1-ylmethyl}-benzoic acid], for which the EC50 came out at 3.3 µM.

For the compound `O=C(O)c1cccc(CN2C(=O)/C(=C(\c3ccccc3)c3ccc(Cl)cc3)c3cccc(F)c32)c1` [Example 73, 3-{3-[1-(4-Chloro-phenyl)-1-phenyl-meth-(E)-ylidene]-7-fluoro-2-oxo-2,3-dihydro-indol-1-ylmethyl}-benzoic acid], the EC50 turned out to be 5.14 µM.

Consider `O=C(O)c1cccc(CN2C(=O)/C(=C(\c3ccccc3)c3ccc(Cl)cc3)c3cc(Cl)ccc32)c1` [Example 74, 3-{5-Chloro-3-[1-(4-chloro-phenyl)-1-phenyl-meth-(E)-ylidene]-2-oxo-2,3-dihydro-indol-1-ylmethyl}-benzoic acid], for which the EC50 turned out to be 3.17 µM.

Consider `O=C(O)c1cccc(CN2C(=O)/C(=C(\c3ccccc3)c3ccccc3Cl)c3ccccc32)c1` [Example 75, 3-{3-[1-(2-Chloro-phenyl)-1-phenyl-meth-(E)-ylidene]-2-oxo-2,3-dihydro-indol-1-ylmethyl}-benzoic acid], for which the concentration giving a half-maximal response (EC50) came to 1.84 µM.

Turning to `O=C(O)c1csc(CN2C(=O)/C(=C(\c3ccccc3)c3ccc(Cl)cc3)c3ccccc32)n1` [Example 76, 2-{3-[1-(4-Chloro-phenyl)-1-phenyl-meth-(E)-ylidene]-2-oxo-2,3-dihydro-indol-1-ylmethyl}-thiazole-4-carboxylic acid], the EC50 was 5.14 µM.

Regarding `COC(=O)c1cccc(CN2C(=O)/C(=C(/CCC(C)C)c3ccccc3)c3ccccc32)c1` [Example 77, 3-[3-(4-Methyl-1-phenyl-pent-(Z)-ylidene)-2-oxo-2,3-dihydro-indol-1-ylmethyl]-benzoic acid methyl ester], the EC50 worked out at 2.58 µM.
